Source: US6610677B2, “Pyrazole compounds useful as protein kinase inhibitors” (Vertex Pharmaceuticals Incorporated, priority 2000, dated 2003)

Molecular target: T1, GSK-3β (AA 1-420) (Homo sapiens, UniProt P49841)
T1 construct: GSK-3β (AA 1-420)
Test: Ki determination for the inhibition of GSK-3 (coupled enzyme system)
Format: biochemical
Conditions: 20 μM ATP, 300 μM peptide, 20 nM GSK-3β, 30° C
Protocol: Compounds were screened for their ability to inhibit GSK-3β (AA 1-420) activity using a standard coupled enzyme system (Fox et al. (1998) Protein Sci. 7, 2249). Reactions were carried out in a solution containing 100 mM HEPES (pH 7.5), 10 mM MgCl2, 25 mM NaCl, 300 μM NADH, 1 mM DTT and 1.5% DMSO. Final substrate concentrations in the assay were 20 μM ATP (Sigma Chemicals, St Louis, Mo.) and 300 μM peptide (HSSPHQS(PO3H2)EDEEE, American Peptide, Sunnyvale, Calif.). Reactions were carried out at 30° C. and 20 nM GSK-3β. Final concentrations of the components of the coupled enzyme system were 2.5 mM phosphoenolpyruvate, 300 μM NADH, 30 μg/ml pyruvate kinase and 10 μg/ml lactate dehydrogenase.
An assay stock buffer solution was prepared containing all of the reagents listed above with the exception of ATP and the test compound of interest. The assay stock buffer solution (175 μl) was incubated in a 96 well plate with 5 μl of the test compound of interest at final concentrations spanning 0.002 μM to 30 μM at 30° C. for 10 min. Typically, a 12 point titration was conducted by preparing serial dilutions (from 10 mM compound stocks) with DMSO of the test compounds in daughter plates. The reaction was initiated by the addition of 20 μl of ATP (final concentration 20 μM). Rates of reaction were obtained using a Molecular Devices Spectramax plate reader (Sunnyvale, Calif.) over 10 min at 30° C. The Ki values were determined from the rate data as a function of inhibitor concentration.

T1 sequence (P49841 whole entry, the tested form may be a part): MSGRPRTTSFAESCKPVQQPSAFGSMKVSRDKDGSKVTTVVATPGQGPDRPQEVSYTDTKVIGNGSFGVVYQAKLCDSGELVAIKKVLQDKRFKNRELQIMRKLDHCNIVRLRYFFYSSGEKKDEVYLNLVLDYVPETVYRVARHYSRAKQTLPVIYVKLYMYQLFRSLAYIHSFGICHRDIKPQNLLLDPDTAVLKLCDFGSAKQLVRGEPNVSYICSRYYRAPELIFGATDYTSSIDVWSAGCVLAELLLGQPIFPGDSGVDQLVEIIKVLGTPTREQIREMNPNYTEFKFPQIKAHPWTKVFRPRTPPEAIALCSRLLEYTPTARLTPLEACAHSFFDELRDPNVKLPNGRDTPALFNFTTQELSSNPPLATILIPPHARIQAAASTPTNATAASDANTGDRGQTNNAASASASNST

Fc1cccc2c(Nc3nc(-c4ccccc4Cl)nc4c3CCC4)n[nH]c12 [II-117, [2-(2-Chloro-phenyl)-6,7-dihydro-5H-cyclopentapyrimidin-4-yl]-(7-fluoro-1H-indazol-3-yl)-amine]
Ki: < 100 nM

Fc1ccc2[nH]nc(Nc3nc(-c4ccccc4Cl)nc4c3CCCCC4)c2c1 [II-5, [2-(2-Chloro-phenyl)-6,7,8,9-tetrahydro-5H-cycloheptapyrimidin-4-yl]-(5-fluoro-1H-indazol-3-yl)-amine]
Ki: < 100 nM

c1ccc(-c2cc(Nc3nc[nH]n3)c3ccccc3n2)cc1 [IX-176, (2-Phenyl-quinolin-4-yl)-(1H-[1,2,4]triazol-3-yl)-amine]
Ki: 1000 to 20000 nM

Fc1cccc2c(Nc3nc(-c4ccccc4C(F)(F)F)nc4ccccc34)n[nH]c12 [II-60, (7-Fluoro-1H-indazol-3-yl)-[2-(2-trifluoromethyl-phenyl)-quinazolin-4-yl]-amine]
Ki: < 100 nM

Fc1ccc2[nH]nc(Nc3nc(-c4ccccc4C(F)(F)F)nc4c3CCN(Cc3ccccc3)C4)c2c1 [II-18]
Ki: < 100 nM

Fc1cc(F)c2[nH]nc(Nc3cc(-c4ccccc4C(F)(F)F)nc4ccccc34)c2c1 [Compound V-8, (5,7-Difluoro-1H-indazol-3-yl)-[2-(2-trifluoromethyl-phenyl)-quinolin-4-yl]-amine]
Ki: 1000 to 20000 nM

COCCNC(=O)c1cc(Nc2nc(-c3ccccc3)nc3ccccc23)[nH]n1 [III-83]
Ki: 1000 to 20000 nM

FC(F)(F)c1ccccc1-c1nc(Nc2n[nH]c3cccc(-n4cccc4)c23)c2ccccc2n1 [II-72, (4-Pyrrol-1-yl-1H-indazol-3-yl)-[2-(2-trifluoromethyl-phenyl)-quinazolin-4-yl]-amine]
Ki: 1000 to 20000 nM

COCc1cc(Nc2nc(-c3ccccc3C(F)(F)F)nc3ccccc23)n[nH]1 [II-56, (5-Methoxymethyl-2H-pyrazol-3-yl)-[2-(2-trifluoromethyl-phenyl)-quinazolin-4-yl]-amine]
Ki: < 100 nM

Cc1cc(Nc2nc(-c3ccccc3)nc3c2CCCCC3)n[nH]1 [III-8, (5-Methyl-2H-pyrazol-3-yl)-(2-phenyl-6,7,8,9-tetrahydro-5H-cycloheptapyrimidin-4-yl)-amine]
Ki: < 100 nM

CC(C)NC(=O)c1cc(Nc2nc(-c3ccccc3)nc3ccccc23)[nH]n1 [III-81]
Ki: 1000 to 20000 nM

Cc1cc(Nc2nc(-c3ccsc3)nc3ccccc23)[nH]n1 [III-62, (5-Methyl-2H-pyrazol-3-yl)-(2-thiophen-3-yl-quinazolin-4-yl)-amine]
Ki: < 100 nM

Fc1cc(F)c2[nH]nc(Nc3nc(-c4ccc(C(F)(F)F)cc4C(F)(F)F)nc4ccccc34)c2c1 [II-83, [2-(2,4-Bis-trifluoromethyl-phenyl)-quinazolin-4-yl]-(5,7-difluoro-1H-indazol-3-yl)-amine]
Ki: < 100 nM

CC(C)(C)c1cc(Nc2nc(-c3ccccc3C(F)(F)F)nc3ccccc23)n[nH]1 [II-49, (5-tert-Butyl-2H-pyrazol-3-yl)-[2-(2-trifluoromethyl-phenyl)-quinazolin-4-yl]-amine]
Ki: 100 to 1000 nM

Cc1cc(Nc2nc(-c3ccccc3-c3ccccc3)nc3ccccc23)n[nH]1 [II-43, (2-Biphenyl-2-yl-quinazolin-4-yl)-(5-methyl-2H-pyrazol-3-yl)-amine]
Ki: 1000 to 20000 nM

NC(=O)c1cc(Nc2nc(-c3ccccc3)nc3ccccc23)[nH]n1 [III-100, (5-Carbamoyl-2H-pyrazol-3-yl)-(2-phenyl-quinazolin-4-yl)-amine]
Ki: 1000 to 20000 nM

Fc1cc(F)c2[nH]nc(Nc3nc(-c4ccc(Cl)cc4Cl)nc4ccccc34)c2c1 [II-87, [2-(2,4-Dichloro-phenyl)-quinazolin-4-yl]-(5,7-Difluoro-1H-indazol-3-yl)-amine]
Ki: < 100 nM

O=C(c1cc(Nc2nc(N3CCCCC3)nc3ccccc23)[nH]n1)N1CCCCC1 [III-123, [5-(Piperidine-1-carbonyl)-2H-pyrazol-3-yl]-[2-(piperidine-1-yl)-quinazolin-4-yl]-amine]
Ki: 1000 to 20000 nM

O=c1cc2[nH]nc(Nc3nc(-c4ccccc4)nc4ccccc34)c2nn1-c1ccc(Cl)cc1Cl [III-137, [5-(2,4-Dichloro-phenyl)-6-oxo-5,6-dihydro-1H-pyrazolo[4,3-c]pyridazin-3-yl]-(2-phenyl-quinazolin-4-yl)-amine]
Ki: 1000 to 20000 nM

Fc1cc(F)c2[nH]nc(Nc3nc(-c4ccccc4Cl)nc4c3CCCCC4)c2c1 [II-6, [2-(2-Chloro-phenyl)-6,7,8,9-tetrahydro-5H-cycloheptapyrimidin-4-yl]-(5,7-difluoro-1H-indazol-3-yl)-amine]
Ki: < 100 nM

O=c1cc2[nH]nc(Nc3nc(-c4ccccc4)nc4ccccc34)c2nn1-c1ccccc1 [III-135, (6-Oxo-5-phenyl-5,6-dihydro-1H-pyrazolo[4,3-c]pyridazin-3-yl)-(2-phenyl-quinazolin-4-yl)-amine]
Ki: 100 to 1000 nM

Fc1cccc2c(Nc3nc(-c4ccccc4Cl)nc4ccccc34)n[nH]c12 [II-74, [2-(2-Chloro-phenyl)-quinazolin-4-yl]-(7-fluoro-1H-indazol-3-yl)-amine]
Ki: < 100 nM

Cc1nccn1-c1nc(Nc2[nH]nc3ccccc23)c2ccccc2n1 [III-142]
Ki: 100 to 1000 nM

Cc1cc(Nc2nc(-c3ccccc3O)nc3ccccc23)n[nH]1 [II-44, [2-(2-Hydroxyphenyl)-quinazolin-4-yl]-(5-Methyl-2H-pyrazol-3-yl)-amine]
Ki: 100 to 1000 nM

FC(F)(F)c1ccccc1-c1nc(Nc2n[nH]c3ccccc23)cc(-c2ccccc2Cl)n1 [II-23, [6-(2-Chlorophenyl)-2-(2-trifluoromethyl-phenyl)-pyrimidin-4-yl]-(1H-indazol-3-yl)-amine]
Ki: < 100 nM

CC(C)CNC(=O)c1cc(Nc2nc(-c3ccccc3)nc3ccccc23)[nH]n1 [III-91, (5-Isobutylcarbamoyl-2H-pyrazol-3-yl)-(2-phenyl-quinazolin-4-yl)-amine]
Ki: 1000 to 20000 nM

Fc1cc(F)c2[nH]nc(Nc3nc(-c4cc(C(F)(F)F)ccc4Cl)nc4ccccc34)c2c1 [II-88, [2-(2-Chloro-5-trifluoromethyl-phenyl)-quinazolin-4-yl]-(5,7-Difluoro-1H-indazol-3-yl)-amine]
Ki: < 100 nM

Fc1cccc2c(Nc3nc(-c4ccccc4C(F)(F)F)nc4c3CCCCC4)n[nH]c12 [II-14, (7-Fluoro-1H-indazol-3-yl)-[2-(2-trifluoromethyl-phenyl)-6,7,8,9-tetrahydro-5H-cycloheptapyrimidin-4-yl]-amine]
Ki: < 100 nM

FC(F)(F)c1ccccc1-c1nc(Nc2cc(-c3cccs3)[nH]n2)c2ccccc2n1 [II-46, [5-(Thiophen-2-yl)-2H-pyrazol-3-yl]-[2-(2-trifluoromethylphenyl)-quinazolin-4-yl]-amine]
Ki: < 100 nM

FC(F)(F)c1ccccc1-c1nc(Nc2n[nH]c3c2CCCC3)c2ccccc2n1 [II-97, (4,5,6,7-Tetrahydro-1H-indazol-3-yl)-[2-(2-trifluoromethyl-phenyl)-quinazolin-4-yl]-amine]
Ki: 100 to 1000 nM

COC(=O)c1cc(Nc2nc(N3CCCCC3)nc3ccccc23)[nH]n1 [III-122, (5-Methoxycarbonyl-2H-pyrazol-3-yl)-[2-(piperidine-1-yl)-quinazolin-4-yl]-amine]
Ki: 100 to 1000 nM

Fc1cccc2c(Nc3nc(-c4ccccc4C(F)(F)F)nc4c3CCCC4)n[nH]c12 [II-7, (7-Fluoro-1H-indazol-3-yl)-[2-(2-trifluoromethyl-phenyl)-5,6,7,8-tetrahydroquinazolin-4-yl]-amine]
Ki: < 100 nM

CCCNC(=O)c1cc(Nc2nc(-c3ccccc3)nc3ccccc23)[nH]n1 [III-88, (2-Phenyl-quinazolin-4-yl)-(5-propylcarbamoyl-2H-pyrazol-3-yl)-amine]
Ki: 100 to 1000 nM

Fc1cccc2c(Nc3nc(-c4ccccc4C(F)(F)F)nc4c3CCCCCC4)n[nH]c12 [II-120, (7-Fluoro-1H-indazol-3-yl)-[2-(2-trifluoromethyl-phenyl)-5,6,7,8,9,10-hexahydro-cyclooctapyrimidin-4-yl]-amine]
Ki: < 100 nM

Cc1nc(-c2ccccc2Cl)nc(Nc2n[nH]c3c(F)cc(F)cc23)c1C [II-29, [2-(2-Chlorophenyl)-5,6-dimethyl-pyrimidin-4-yl]-(5,7-difluoro-1H-indazol-3-yl)-amine]
Ki: < 100 nM

Cc1cc(Nc2nc(-c3ccncc3)nc3ccc(Cl)cc23)[nH]n1 [III-29, (6-Chloro-2-pyridin-4-yl-quinazolin-4-yl)-(5-methyl-2H-pyrazol-3-yl)-amine]
Ki: 100 to 1000 nM

FC(F)(F)c1ccccc1-c1nc(Nc2n[nH]c3ccccc23)c2cccnc2n1 [II-108, (1H-Indazol-3-yl)-[2-(2-trifluoromethyl-phenyl)-pyrido[2,3-d]pyrimidin-4-yl]-amine]
Ki: < 100 nM

Cc1nc(-c2ccc(Cl)cc2Cl)nc(Nc2n[nH]c3ccccc23)c1C [II-32, [2-(2,4-Dichlorophenyl)-5,6-dimethyl-pyrimidin-4-yl]-(1H-indazol-3-yl)-amine]
Ki: 100 to 1000 nM

FC(F)(F)c1ccccc1-c1nc(Nc2n[nH]cc2-c2ccccc2)c2ccccc2n1 [II-48, (4-Phenyl-2H-pyrazol-3-yl)-[2-(2-trifluoromethylphenyl)-quinazolin-4-yl]-amine]
Ki: 1000 to 20000 nM

Clc1cccc(Cl)c1-c1nc(Nc2n[nH]c3ccccc23)c2ccccc2n1 [II-66, [2-(2,6-Dichloro-phenyl)-guinazolin-4-yl]-(1H-indazol-3-yl)-amine]
Ki: < 100 nM
